Test system: murine B16 melanoma
Assay: Antitumor effect in murine B16 melanoma model, tumor size and tumor weight (Example 2)
Type: in vivo, C57BL/6 mice
Conditions: Day 12
Description: As per aseptic tissue culture procedures, one vial of B16 melanoma cells (supplied by Cell Culture Center of CAMS) was thawed and centrifuged at 1000 rpm, 20-25° C. for 5 minutes. The cell pellets were suspended in 0.1-0.5 mL normal saline (NS) and subcutaneously injected into the right axilla of each mouse (approximately 1×10^6 cells/mouse). When the tumor diameter was 1 cm approximately (measured by vernier caliper), the animals were euthanized with CO2 asphyxiation and the tumor was excised. Tumor cells were suspended in normal saline as previously described and the cell adaptation cycle was repeated once.
On Day 0, 1×10^6 B16 cells in a volume of 0.1 mL normal saline were subcutaneously injected into the right axillary area of the mouse. The day of tumor inoculation was defined as Day 0.
Dosing was initiated on Day 1.
Observations were recorded daily for mortality and moribundity. […] The tumors were excised, separated, and weighed.
Tumor volume was calculated using the following formula: Tumor Volume=Length×Width×Width/2 Tumor volume inhibition rate (IR) was calculated according to the formula: IR(TV)=(TVvehicle−TVdrug treated)/TVvehicle×100% TV is the tumor volume on the day of measurement.
The antitumor effect of the test article was also evaluated by tumor weight. The tumor weight of each mouse was recorded after euthanasia, and the inhibition rate of tumor weight was calculated according to the formula: IR(TW)=(Tumor weightvehicle−Tumor weightdrug treated)/Tumor weightvehicle×100%

N[C@H](CCC(=O)N[C@@H](Cc1c[nH]c2ccccc12)C(=O)O)C(=O)O [SCV-07, γ-D-glutamyl-L-tryptophan]
0.41 cm^3: Tumor volumes (mouse F5, SCV-07 0.01 mg/kg sc)
0.3 cm: Tumor measurements L (mouse F5, SCV-07 0.1 mg/kg sc) | Tumor measurements W (mouse F5, SCV-07 0.1 mg/kg sc)
0.20 cm^3: Tumor volumes (mouse M1, SCV-07 1.0 mg/kg sc)
0.55 cm^3: Tumor volumes (mouse F3, SCV-07 0.1 mg/kg sc)
5E−04 cm^3: Tumor volumes (mouse F3, SCV-07 0.01 mg/kg sc)
0.50 cm^3: Tumor volumes (mouse F2, SCV-07 5.0 mg/kg sc) | Tumor volumes (mouse F3, SCV-07 1.0 mg/kg sc) | Tumor volumes (mouse F4, SCV-07 0.01 mg/kg sc) | Tumor volumes (mouse F5, SCV-07 1.0 mg/kg sc) | Tumor volumes (mouse F5, SCV-07 5.0 mg/kg sc) | Tumor volumes (mouse M2, SCV-07 1.0 mg/kg sc)
1.0 cm: Tumor measurements L (mouse F2, SCV-07 5.0 mg/kg sc) | Tumor measurements W (mouse F2, SCV-07 5.0 mg/kg sc) | Tumor measurements W (mouse F3, SCV-07 0.1 mg/kg sc) | Tumor measurements L (mouse F3, SCV-07 1.0 mg/kg sc) | Tumor measurements W (mouse F3, SCV-07 1.0 mg/kg sc) | Tumor measurements L (mouse F4, SCV-07 0.01 mg/kg sc) | Tumor measurements W (mouse F4, SCV-07 0.01 mg/kg sc) | Tumor measurements L (mouse F5, SCV-07 0.01 mg/kg sc) | Tumor measurements L (mouse F5, SCV-07 1.0 mg/kg sc) | Tumor measurements W (mouse F5, SCV-07 1.0 mg/kg sc) | Tumor measurements L (mouse F5, SCV-07 5.0 mg/kg sc) | Tumor measurements W (mouse F5, SCV-07 5.0 mg/kg sc) | Tumor measurements L (mouse M2, SCV-07 1.0 mg/kg sc) | Tumor measurements W (mouse M2, SCV-07 1.0 mg/kg sc)
0.45 cm^3: Tumor volumes (mouse M3, SCV-07 0.01 mg/kg sc)
0.8 cm: Tumor measurements L (mouse F4, SCV-07 5.0 mg/kg sc) | Tumor measurements W (mouse F4, SCV-07 5.0 mg/kg sc) | Tumor measurements L (mouse M1, SCV-07 1.0 mg/kg sc)
0.01 cm^3: Tumor volumes (mouse F5, SCV-07 0.1 mg/kg sc)
0.17 cm^3: Tumor volumes (mouse F3, SCV-07 5.0 mg/kg sc) | Tumor volumes (mouse M1, SCV-07 5.0 mg/kg sc)
0.9 cm: Tumor measurements W (mouse F5, SCV-07 0.01 mg/kg sc) | Tumor measurements L (mouse M2, SCV-07 0.01 mg/kg sc) | Tumor measurements W (mouse M2, SCV-07 0.01 mg/kg sc) | Tumor measurements L (mouse M2, SCV-07 0.1 mg/kg sc) | Tumor measurements W (mouse M2, SCV-07 0.1 mg/kg sc) | Tumor measurements L (mouse M2, SCV-07 5.0 mg/kg sc) | Tumor measurements W (mouse M2, SCV-07 5.0 mg/kg sc) | Tumor measurements W (mouse M3, SCV-07 0.01 mg/kg sc)
0.36 cm^3: Tumor volumes (mouse M2, SCV-07 0.01 mg/kg sc) | Tumor volumes (mouse M2, SCV-07 0.1 mg/kg sc) | Tumor volumes (mouse M2, SCV-07 5.0 mg/kg sc)
0.26 cm^3: Tumor volumes (mouse F4, SCV-07 5.0 mg/kg sc)
1.1 cm: Tumor measurements L (mouse F3, SCV-07 0.1 mg/kg sc) | Tumor measurements L (mouse F4, SCV-07 0.1 mg/kg sc) | Tumor measurements W (mouse F4, SCV-07 0.1 mg/kg sc) | Tumor measurements L (mouse M1, SCV-07 0.01 mg/kg sc) | Tumor measurements W (mouse M1, SCV-07 0.01 mg/kg sc) | Tumor measurements L (mouse M1, SCV-07 0.1 mg/kg sc) | Tumor measurements W (mouse M1, SCV-07 0.1 mg/kg sc) | Tumor measurements L (mouse M3, SCV-07 0.01 mg/kg sc) | Tumor measurements L (mouse M3, SCV-07 0.1 mg/kg sc) | Tumor measurements W (mouse M3, SCV-07 0.1 mg/kg sc)
0.00 cm^3: Tumor volumes (mouse F4, SCV-07 1.0 mg/kg sc)
0.7 cm: Tumor measurements L (mouse F3, SCV-07 5.0 mg/kg sc) | Tumor measurements W (mouse F3, SCV-07 5.0 mg/kg sc) | Tumor measurements W (mouse M1, SCV-07 1.0 mg/kg sc) | Tumor measurements L (mouse M1, SCV-07 5.0 mg/kg sc) | Tumor measurements W (mouse M1, SCV-07 5.0 mg/kg sc)
0.67 cm^3: Tumor volumes (mouse F4, SCV-07 0.1 mg/kg sc) | Tumor volumes (mouse M1, SCV-07 0.01 mg/kg sc) | Tumor volumes (mouse M1, SCV-07 0.1 mg/kg sc)
0.1 cm: Tumor measurements L (mouse F3, SCV-07 0.01 mg/kg sc) | Tumor measurements W (mouse F3, SCV-07 0.01 mg/kg sc) | Tumor measurements L (mouse F4, SCV-07 1.0 mg/kg sc) | Tumor measurements W (mouse F4, SCV-07 1.0 mg/kg sc)

From patent US8163702B2, “Treatment of melanoma” (SciClone Pharmaceuticals, Inc., priority 2006, dated 2012)
